# Assay results taken from the supplement of paper PMC11208160.
# Test: recombinant barcode read abundance after kanamycin selection (control-corrected) (log10(CPM+1)); higher = more efficient recombination; sequences stand for … in AGTGCAGAGAAAATCGGCCAGTTTTCTCTGCCTGCAGTCCGCATGCCGT…AGATTTATGCAGCGGACTGCCTTTCTCCCAAAGTGATAAACCGGACAGTATCATGGACCGGTTTTCCCGGTAATCCGTATTTGCAAGGTTGGTTTCACT; site = the 11-nt target
# Experimental: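 Pooled E. coli target-specificity screen for the IS621 bridge recombinase. Each library plasmid pairs an 11-nt target (CT core) with a bridge RNA whose target-binding loop (9-nt LTG + 4-nt RTG) is reprogrammed; the rest of the 177-nt WT IS621 bridge RNA scaffold is fixed. The plasmid is co-electroporated with a WT donor plasmid; recombinase is induced with 0.1 mM IPTG and recombinants are selected on kanamycin. Recombinant barcodes are sequenced, converted to CPM, averaged over two biological replicates and corrected by the unselected control CPM. Molecule = full bridge RNA written as DNA: LTG = specificity nt 1-9, RTG = reverse complement of specificity nt 8-11, in the WT scaffold.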
# 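Note: IS621 recombinase and bridge RNA in Escherichia coli cells.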
row,Sequence,recombinant barcode read abundance (log10)
1,ACCTTACCTTGGGTTCTAACCTGTTGCGT (site ACCTTACCTCC),0.504
2,ACGAAGGCTTGGGTTCTAACCTGTTGCCG (site ACGAAGGCTAG),0.182
3,ACGAAGGCTTGGGTTCTAACCTGTTGCCG (site ACGAAGGCTCG),0.691
4,ACGACCGCTTGGGTTCTAACCTGTTGCCT (site ACGAACGCTAG),0.571
5,ACGACCGCTTGGGTTCTAACCTGTTGCCT (site ACGACCGCTAG),0.804
6,ACGACCGCTTGGGTTCTAACCTGTTGCCT (site ACGAGCGCTAG),0.119
7,ACGACCGCTTGGGTTCTAACCTGTTGCCT (site ACGATCGCTAG),0.245
8,ACGACTACTTGGGTTCTAACCTGTTGCCT (site ACGACTACTAG),0.128
9,ACGACTACTTGGGTTCTAACCTGTTGCCT (site ACGACTCCTAG),0.00963
10,ACGACTACTTGGGTTCTAACCTGTTGCCT (site ACGACTGCTAG),0.113
11,ACGACTACTTGGGTTCTAACCTGTTGCCT (site ACGACTTCTAG),0.048
12,ACGACTGCTTGGGTTCTAACCTGTTGCCT (site ACGACTACTAG),0.166
13,ACGACTGCTTGGGTTCTAACCTGTTGCCT (site ACGACTCCTAG),0.163
14,ACGACTGCTTGGGTTCTAACCTGTTGCCT (site ACGACTGCTAG),0.738
15,ACGACTGCTTGGGTTCTAACCTGTTGCCT (site ACGACTTCTAG),0.247
16,ACGAGAGCTTGGGTTCTAACCTGTTGCCT (site ACAAGAGCTAG),0.92
17,ACGAGAGCTTGGGTTCTAACCTGTTGCCT (site ACCAGAGCTAG),0.0692
18,ACGAGAGCTTGGGTTCTAACCTGTTGCCT (site ACGAGAGCTAG),1.11
19,ACGAGAGCTTGGGTTCTAACCTGTTGCCT (site ACTAGAGCTAG),0.135
20,ACGAGCCCTTGGGTTCTAACCTGTTGCCA (site ACGAGCCCTTG),0.666
21,ACGAGCCCTTGGGTTCTAACCTGTTGCCA (site ACGCACCCTTG),0.151

row,Sequence,recombinant barcode read abundance (log10)
1,ACGAGGACTTGGGTTCTAACCTGTTGCCG (site ACGAAGACTCG),0.232
2,ACGAGGACTTGGGTTCTAACCTGTTGCCG (site ACGAGGACTCG),1.09
3,ACGAGTACTTGGGTTCTAACCTGTTGCGG (site ACGAGTACTCA),0.392
4,ACGAGTACTTGGGTTCTAACCTGTTGCGG (site ACGAGTACTCC),1.82
5,ACGATTCCTTGGGTTCTAACCTGTTGCTT (site ACGAATCCTAA),0.0108
6,ACGATTCCTTGGGTTCTAACCTGTTGCTT (site ACGACTCCTAA),0.142
7,ACGATTCCTTGGGTTCTAACCTGTTGCTT (site ACGAGTCCTAA),0.0586
8,ACGATTCCTTGGGTTCTAACCTGTTGCTT (site ACGATTCCTAA),0.0242
9,ACGCAGTCTTGGGTTCTAACCTGTTGCCT (site ACGCAATCTAG),0.313
10,ACGCAGTCTTGGGTTCTAACCTGTTGCCT (site ACGCACTCTAG),0.0573
11,ACGCAGTCTTGGGTTCTAACCTGTTGCCT (site ACGCAGTCTAG),0.798
12,ACGCAGTCTTGGGTTCTAACCTGTTGCCT (site ACGCATTCTAG),0.129
13,ACGGACCCTTGGGTTCTAACCTGTTGCAT (site ACGAACCCTAG),0.225
14,ACGGACCCTTGGGTTCTAACCTGTTGCAT (site ACGGACCCTAT),2.82
15,ACGGAGACTTGGGTTCTAACCTGTTGCAT (site ACGGAGACTAT),2.78
16,ACGGAGACTTGGGTTCTAACCTGTTGCAT (site GTACTACCTCG),0.108
17,ACGGCTCCTTGGGTTCTAACCTGTTGCTG (site ACGACTCCTCA),0.0439
18,ACGGCTCCTTGGGTTCTAACCTGTTGCTG (site ACGCCTCCTCA),0.116
19,ACGGCTCCTTGGGTTCTAACCTGTTGCTG (site ACGGCTCCTCA),1.35
20,ACGGCTCCTTGGGTTCTAACCTGTTGCTG (site ACGTCTCCTCA),0.123
21,ACGGGGCCTTGGGTTCTAACCTGTTGCCG (site ACGGGGCCTCG),1.88

row,Sequence,recombinant barcode read abundance (log10)
1,ACGGGGCCTTGGGTTCTAACCTGTTGCCG (site GTATATACTAA),0.116
2,ACGGGTACTTGGGTTCTAACCTGTTGCCA (site AAGGGTTCTTG),0.355
3,ACGGGTACTTGGGTTCTAACCTGTTGCCA (site ACGGGTACTTG),1.02
4,ACGGTTGCTTGGGTTCTAACCTGTTGCCT (site ACGGGTGCTAG),0.434
5,ACGGTTGCTTGGGTTCTAACCTGTTGCCT (site ACGGTTGCTAG),2.22
6,ACGTAATCTTGGGTTCTAACCTGTTGCTT (site ACGTAATCTAA),0.207
7,ACGTAATCTTGGGTTCTAACCTGTTGCTT (site CGGTAATCTAA),0.246
8,ACGTGAACTTGGGTTCTAACCTGTTGCCT (site ACATGAACTAG),0.532
9,ACGTGAACTTGGGTTCTAACCTGTTGCCT (site ACCTGAACTAG),0.0714
10,ACGTGAACTTGGGTTCTAACCTGTTGCCT (site ACGTGAACTAG),0.416
11,ACGTGAACTTGGGTTCTAACCTGTTGCCT (site ACTTGAACTAG),0.0355
12,ACGTGTCCTTGGGTTCTAACCTGTTGCGG (site ACGTGTCCTCC),1.88
13,ACGTGTCCTTGGGTTCTAACCTGTTGCGG (site GGAGAGACTAT),0.242
14,ACGTTGTCTTGGGTTCTAACCTGTTGCCT (site ACATTGTCTAG),1.24
15,ACGTTGTCTTGGGTTCTAACCTGTTGCCT (site ACCTTGTCTAG),0.0624
16,ACGTTGTCTTGGGTTCTAACCTGTTGCCT (site ACGTTGTCTAG),0.767
17,ACGTTGTCTTGGGTTCTAACCTGTTGCCT (site ACTTTGTCTAG),0.0891
18,ACTAAGACTTGGGTTCTAACCTGTTGCTG (site ACTAAGACTCA),1.96
19,ACTAAGACTTGGGTTCTAACCTGTTGCTG (site AGTAAGACTTA),0.0302
20,ACTACTCCTTGGGTTCTAACCTGTTGCGA (site ACTACTCCTTC),0.93
21,ACTACTCCTTGGGTTCTAACCTGTTGCGA (site ACTAGTCCTTG),0.119

row,Sequence,recombinant barcode read abundance (log10)
1,ACTAGGACTTGGGTTCTAACCTGTTGCGG (site ACTAGGACTAC),0.0821
2,ACTAGGACTTGGGTTCTAACCTGTTGCGG (site ACTAGGACTCC),2.93
3,ACTAGGACTTGGGTTCTAACCTGTTGCGG (site ACTAGGACTGC),0.444
4,ACTAGGACTTGGGTTCTAACCTGTTGCGG (site ACTAGGACTTC),0.302
5,ACTAGTCCTTGGGTTCTAACCTGTTGCAT (site ACTAGTCCTAA),0.239
6,ACTAGTCCTTGGGTTCTAACCTGTTGCAT (site ACTAGTCCTAC),0.0726
7,ACTAGTCCTTGGGTTCTAACCTGTTGCAT (site ACTAGTCCTAG),0.0896
8,ACTAGTCCTTGGGTTCTAACCTGTTGCAT (site ACTAGTCCTAT),1.29
9,ACTAGTCCTTGGGTTCTAACCTGTTGCGT (site ACTAGTCCTAA),0.0427
10,ACTAGTCCTTGGGTTCTAACCTGTTGCGT (site ACTAGTCCTAC),2.25
11,ACTAGTCCTTGGGTTCTAACCTGTTGCGT (site ACTAGTCCTAG),0.133
12,ACTAGTCCTTGGGTTCTAACCTGTTGCGT (site ACTAGTCCTAT),0.894
13,ACTATAACTTGGGTTCTAACCTGTTGCTT (site ACTATAACTAA),0.401
14,ACTATAACTTGGGTTCTAACCTGTTGCTT (site ACTCTAACTAA),0.535
15,ACTATAACTTGGGTTCTAACCTGTTGCTT (site ACTGTAACTAA),0.125
16,ACTATAACTTGGGTTCTAACCTGTTGCTT (site ACTTTAACTAA),0.0487
17,ACTCACACTTGGGTTCTAACCTGTTGCTT (site ACTCACACTAA),1.06
18,ACTCACACTTGGGTTCTAACCTGTTGCTT (site GGAGCTCCTCG),0.00954
19,ACTCAGACTTGGGTTCTAACCTGTTGCAC (site ACTCAGACTGT),1.9
